According to patent US6355799B1, “Substituted benzene compounds, process for their preparation, and herbicidal and defoliant compositions containing them” (ISK Americas Incorporated, priority 1997, dated 2002):

Key:
Assay type in all cases: in vivo
[1] = tested on: velvetleaf (Abutilon theophrasti, ABUTH); test: Pre-emerge test, greenhouse herbicide activity screening; settings: rating scale 0-100, 14 days after application
Procedure, shortened: (§1)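 Applied at 15–1000 g ai/ha from acetone in 187 l/ha spray volume. Post-emergence applications included 0.25% v/v non-ionic surfactant and reached plants sown 8–21 days before. Pre-emergence applications were incorporated by surface watering. Efficacy or crop damage was rated on a 0–100 scale after 14 days.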

[2] = tested on: large crabgrass (Digitaria sanguinalis, DIGSA); test: as above; settings: rating scale 0-100, 14 days after application
Procedure, shortened: as §1

[3] = tested on: johnsongrass (Sorghum halepense, SORHA); test: as above; settings: rating scale 0-100, 14 days after application
Procedure, shortened: as §1

[4] = tested on: barnyardgrass (Echinochloa crus-galli, ECHCG); test: as above; settings: rating scale 0-100, 14 days after application
Procedure, shortened: as §1

[5] = tested on: common ragweed (Ambrosia artemisizfolia L., AMBEL); test: as above; settings: rating scale 0-100, 14 days after application
Procedure, shortened: as §1

[6] = tested on: lambsquarters (Chenopodium album, CHEAL); test: as above; settings: rating scale 0-100, 14 days after application
Procedure, shortened: as §1

[7] = tested on: ivyleaf morningglory (Ipomoea hederacea, IPOHE); test: as above; settings: rating scale 0-100, 14 days after application
Procedure, shortened: as §1

[8] = tested on: green foxtail (Setaria viridis, SETVI); test: as above; settings: rating scale 0-100, 14 days after application
Procedure, shortened: as §1

[9] = tested on: sicklepod (Cassia obtusifolia, CASOB); test: as above; settings: rating scale 0-100, 14 days after application
Procedure, shortened: as §1

[10] = tested on: upland rice (Oryza sp., var. Tebonnet, RICE); test: Post-emerge test, crop safety; settings: rating scale 0-100 (0 no damage, 100 complete death), 14 days after application
Procedure, shortened: as §1

[11] = tested on: field corn (Zea mays L., var. Dekalb 535, CORN); test: Post-emerge test, crop safety; settings: rating scale 0-100 (0 no damage, 100 complete death), 14 days after application
Procedure, shortened: as §1

[12] = tested on: velvetleaf (Abutilon theophrasti, ABUTH); test: Post-emerge test, greenhouse herbicide activity screening; settings: rating scale 0-100 (0 no damage, 100 complete death), 14 days after application
Procedure, shortened: (§2)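 Fourteen days after spraying, crop and weed injury was graded visually from 0, no effect, to 100, every plant dead. Test substances were dissolved in acetone and applied at 15–1000 g ai/ha with a flat-fan nozzle. Application was either pre-emergence, one day after sowing, or post-emergence at the 2–3 leaf stage.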

[13] = tested on: large crabgrass (Digitaria sanguinalis, DIGSA); test: as above; settings: rating scale 0-100 (0 no damage, 100 complete death), 14 days after application
Procedure, shortened: as §2

[14] = tested on: johnsongrass (Sorghum halepense, SORHA); test: as above; settings: rating scale 0-100 (0 no damage, 100 complete death), 14 days after application
Procedure, shortened: as §2

[15] = tested on: barnyardgrass (Echinochloa crus-galli, ECHCG); test: as above; settings: rating scale 0-100 (0 no damage, 100 complete death), 14 days after application
Procedure, shortened: as §2

[16] = tested on: lambsquarters (Chenopodium album, CHEAL); test: as above; settings: rating scale 0-100 (0 no damage, 100 complete death), 14 days after application
Procedure, shortened: as §2

[17] = tested on: ivyleaf morningglory (Ipomoea hederacea, IPOHE); test: as above; settings: rating scale 0-100 (0 no damage, 100 complete death), 14 days after application
Procedure, shortened: as §2

[18] = tested on: green foxtail (Setaria viridis, SETVI); test: as above; settings: rating scale 0-100 (0 no damage, 100 complete death), 14 days after application
Procedure, shortened: as §2

[19] = tested on: sicklepod (Cassia obtusifolia, CASOB); test: as above; settings: rating scale 0-100 (0 no damage, 100 complete death), 14 days after application
Procedure, shortened: as §2

[20] = tested on: redroot pigweed (Amaranthus retroflexus, AMARE); test: as above; settings: rating scale 0-100 (0 no damage, 100 complete death), 14 days after application
Procedure, shortened: as §2

[21] = tested on: upland rice (Oryza sp., var. Tebonnet, RICE); test: Pre-emerge test, crop safety; settings: rating scale 0-100, 14 days after application
Procedure, shortened: (§3)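 Compounds in acetone were track-sprayed at 187 l/ha, 15–1000 g ai/ha, onto sandy loam pots. Pre-emerge seeds were sown one day before spraying, with surface watering afterwards. Post-emerge plants were at the 2–3 leaf stage and sprayed with 0.25% v/v non-ionic surfactant. Injury was rated 0–100 at 14 days.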

[22] = tested on: field corn (Zea mays L., var. Dekalb 535, CORN); test: Pre-emerge test, crop safety; settings: rating scale 0-100, 14 days after application
Procedure, shortened: as §3

[23] = tested on: redroot pigweed (Amaranthus retroflexus, AMARE); test: Pre-emerge test, greenhouse herbicide activity screening; settings: rating scale 0-100, 14 days after application
Procedure, shortened: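 Plants grown in 10 cm pots of sandy loam mix received acetone-dissolved compounds through a moving flat-fan nozzle. Doses ranged from 15 to 1000 g ai/ha. Pre-emerge pots were seeded one day earlier, post-emerge pots 8–21 days earlier. Fourteen days on, each pot was graded 0–100 for damage.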

Compound: C=COC(=O)C(C)(Cl)Cc1c(OC)c(Cl)cc(F)c1-n1c(=O)cc(C(F)(F)F)n(C)c1=O (stereo not shown) [14-42]
- Pre-emerge herbicidal activity, phytotoxicity rating ABUTH ([1]; 63 g ai/ha): 80
- Pre-emerge herbicidal activity, phytotoxicity rating ABUTH ([1]; 250 g ai/ha): 95
- Pre-emerge herbicidal activity, phytotoxicity rating DIGSA ([2]; 63 g ai/ha): 0
- Pre-emerge herbicidal activity, phytotoxicity rating DIGSA ([2]; 250 g ai/ha): 50
- Pre-emerge herbicidal activity, phytotoxicity rating SORHA ([3]; 63 g ai/ha): 0
- Pre-emerge herbicidal activity, phytotoxicity rating SORHA ([3]; 250 g ai/ha): 0
- Pre-emerge herbicidal activity, phytotoxicity rating ECHCG ([4]; 63 g ai/ha): 0
- Pre-emerge herbicidal activity, phytotoxicity rating ECHCG ([4]; 250 g ai/ha): 20
- Pre-emerge herbicidal activity, phytotoxicity rating AMBEL ([5]; 63 g ai/ha): 0
- Pre-emerge herbicidal activity, phytotoxicity rating AMBEL ([5]; 250 g ai/ha): 100
- Pre-emerge herbicidal activity, phytotoxicity rating CHEAL ([6]; 63 g ai/ha): 90
- Pre-emerge herbicidal activity, phytotoxicity rating CHEAL ([6]; 250 g ai/ha): 100
- Pre-emerge herbicidal activity, phytotoxicity rating IPOHE ([7]; 63 g ai/ha): 0
- Pre-emerge herbicidal activity, phytotoxicity rating IPOHE ([7]; 250 g ai/ha): 30
- Pre-emerge herbicidal activity, phytotoxicity rating SETVI ([8]; 63 g ai/ha): 30
- Pre-emerge herbicidal activity, phytotoxicity rating SETVI ([8]; 250 g ai/ha): 80
- Pre-emerge herbicidal activity, phytotoxicity rating CASOB ([9]; 63 g ai/ha): 0
- Pre-emerge herbicidal activity, phytotoxicity rating CASOB ([9]; 250 g ai/ha): 0
- Post-emerge phytotoxicity rating RICE (crop damage) ([10]; Rate 63 g ai/ha): 95
- Post-emerge phytotoxicity rating RICE (crop damage) ([10]; Rate 250 g ai/ha): 100
- Post-emerge phytotoxicity rating CORN (crop damage) ([11]; Rate 63 g ai/ha): 100
- Post-emerge phytotoxicity rating CORN (crop damage) ([11]; Rate 250 g ai/ha): 100
- Post-emerge Herbicidal Activity, phytotoxicity rating ABUTH ([12]; Rate 63 g ai/ha): 100
- Post-emerge Herbicidal Activity, phytotoxicity rating ABUTH ([12]; Rate 250 g ai/ha): 100
- Post-emerge Herbicidal Activity, phytotoxicity rating DIGSA ([13]; Rate 63 g ai/ha): 95
- Post-emerge Herbicidal Activity, phytotoxicity rating DIGSA ([13]; Rate 250 g ai/ha): 100
- Post-emerge Herbicidal Activity, phytotoxicity rating SORHA ([14]; Rate 63 g ai/ha): 60
- Post-emerge Herbicidal Activity, phytotoxicity rating SORHA ([14]; Rate 250 g ai/ha): 95
- Post-emerge Herbicidal Activity, phytotoxicity rating ECHCG ([15]; Rate 63 g ai/ha): 100
- Post-emerge Herbicidal Activity, phytotoxicity rating ECHCG ([15]; Rate 250 g ai/ha): 100
- Post-emerge Herbicidal Activity, phytotoxicity rating CHEAL ([16]; Rate 63 g ai/ha): 100
- Post-emerge Herbicidal Activity, phytotoxicity rating CHEAL ([16]; Rate 250 g ai/ha): 100
- Post-emerge Herbicidal Activity, phytotoxicity rating IPOHE ([17]; Rate 63 g ai/ha): 100
- Post-emerge Herbicidal Activity, phytotoxicity rating IPOHE ([17]; Rate 250 g ai/ha): 100
- Post-emerge Herbicidal Activity, phytotoxicity rating SETVI ([18]; Rate 63 g ai/ha): 100
- Post-emerge Herbicidal Activity, phytotoxicity rating SETVI ([18]; Rate 250 g ai/ha): 100
- Post-emerge Herbicidal Activity, phytotoxicity rating CASOB ([19]; Rate 63 g ai/ha): 60
- Post-emerge Herbicidal Activity, phytotoxicity rating CASOB ([19]; Rate 250 g ai/ha): 90
- Post-emerge Herbicidal Activity, phytotoxicity rating AMARE ([20]; Rate 63 g ai/ha): 100
- Post-emerge Herbicidal Activity, phytotoxicity rating AMARE ([20]; Rate 250 g ai/ha): 100
- Pre-emerge phytotoxicity rating, crop damage RICE ([21]; 63 g ai/ha): 10
- Pre-emerge phytotoxicity rating, crop damage RICE ([21]; 250 g ai/ha): 30
- Pre-emerge phytotoxicity rating, crop damage CORN ([22]; 63 g ai/ha): 0
- Pre-emerge phytotoxicity rating, crop damage CORN ([22]; 250 g ai/ha): 20
- Pre-emerge herbicidal activity, phytotoxicity rating AMARE ([23]; 63 g ai/ha): 95
- Pre-emerge herbicidal activity, phytotoxicity rating AMARE ([23]; 250 g ai/ha): 100
